Measured values published in the NIST ThermoML archive (doi:10.1016/j.fluid.2014.10.003).
Where “and” joins values, the source holds several entries; their conditions need not be identical. Equal entries are not always repeated. ± gives the expanded uncertainty stated by the source.

Conditions: Liquid, Vibrating tube method

`CCCCC(CC)COC(=O)c1ccc(C(=O)OCC(CC)CCCC)c(C(=O)OCC(CC)CCCC)c1` (configuration not stated) [tris(2-ethylhexyl) trimellitate] showed a mass density (293.15 K, 100 kPa) of 988.2 ± 2 kg/m3, a mass density (293.15 K, 2510 kPa) of 989.6 ± 2 kg/m3 and a mass density (293.15 K, 5000 kPa) of 991 ± 2 kg/m3. It also gave a mass density (293.15 K, 7510 kPa) of 992.4 ± 2 kg/m3, a mass density (293.15 K, 10010 kPa) of 993.8 ± 2 kg/m3 and a mass density (293.15 K, 15010 kPa) of 996.6 ± 2 kg/m3. It also gave a mass density (293.15 K, 19990 kPa) of 999.2 ± 2 kg/m3, a mass density (293.15 K, 30010 kPa) of 1004.3 ± 2 kg/m3 and a mass density (293.15 K, 40020 kPa) of 1009.2 ± 2 kg/m3. The mass density (293.15 K, 50030 kPa) was 1013.8 ± 2 kg/m3, the mass density (293.15 K, 68010 kPa) was 1021.5 ± 2.1 kg/m3 and the mass density (313.15 K, 100 kPa) was 973.4 ± 2 kg/m3. For the same compound, the mass density (313.15 K, 2500 kPa) was 974.9 ± 2 kg/m3, the mass density (313.15 K, 2510 kPa) was 974.9 ± 2 kg/m3 and the mass density (313.15 K, 5020 kPa) was 976.4 ± 2 kg/m3 and 976.5 ± 2 kg/m3. For the same compound, the mass density (313.15 K, 7490 kPa) was 977.9 ± 2 kg/m3, the mass density (313.15 K, 10010 kPa) was 979.4 ± 2 kg/m3 and 979.5 ± 2 kg/m3 and the mass density (313.15 K, 15010 kPa) was 982.4 ± 2 kg/m3. For the same compound, the mass density (313.15 K, 20000 kPa) was 985.3 ± 2 kg/m3, the mass density (313.15 K, 30030 kPa) was 990.8 ± 2 kg/m3 and the mass density (313.15 K, 40000 kPa) was 996 ± 2 kg/m3. The mass density (313.15 K, 40020 kPa) was 996 ± 2 kg/m3, the mass density (313.15 K, 50000 kPa) was 1001 ± 2 kg/m3 and the mass density (313.15 K, 68000 kPa) was 1009.3 ± 2 kg/m3. The mass density (333.15 K, 100 kPa) was 958.9 ± 1.9 kg/m3, the mass density (333.15 K, 2500 kPa) was 960.4 ± 1.9 kg/m3 and 960.5 ± 1.9 kg/m3 and the mass density (333.15 K, 5000 kPa) was 962.1 ± 1.9 kg/m3. The mass density (333.15 K, 7510 kPa) was 963.8 ± 1.9 kg/m3, the mass density (333.15 K, 10010 kPa) was 965.4 ± 1.9 kg/m3 and the mass density (333.15 K, 15010 kPa) was 968.6 ± 1.9 kg/m3. For the same compound, the mass density (333.15 K, 20000 kPa) was 971.6 ± 2 kg/m3, the mass density (333.15 K, 30010 kPa) was 977.6 ± 2 kg/m3 and the mass density (333.15 K, 39990 kPa) was 983.1 ± 2 kg/m3. The mass density (333.15 K, 50000 kPa) was 988.4 ± 2 kg/m3, the mass density (333.15 K, 67990 kPa) was 997.2 ± 2 kg/m3 and the mass density (353.15 K, 100 kPa) was 944.5 ± 1.9 kg/m3. For the same compound, the mass density (353.15 K, 2490 kPa) was 946.2 ± 1.9 kg/m3, the mass density (353.15 K, 5020 kPa) was 948.1 ± 1.9 kg/m3 and the mass density (353.15 K, 7510 kPa) was 949.8 ± 1.9 kg/m3. The mass density (353.15 K, 10020 kPa) was 951.6 ± 1.9 kg/m3, the mass density (353.15 K, 14990 kPa) was 955 ± 1.9 kg/m3 and the mass density (353.15 K, 20010 kPa) was 958.3 ± 1.9 kg/m3. It also gave a mass density (353.15 K, 30000 kPa) of 964.7 ± 1.9 kg/m3, a mass density (353.15 K, 40020 kPa) of 970.6 ± 2 kg/m3 and a mass density (353.15 K, 49990 kPa) of 976.2 ± 2 kg/m3. The mass density (353.15 K, 68000 kPa) was 985.5 ± 2 kg/m3, the mass density (373.15 K, 100 kPa) was 930.1 ± 1.9 kg/m3 and the mass density (373.15 K, 2510 kPa) was 932 ± 1.9 kg/m3. For the same compound, the mass density (373.15 K, 5020 kPa) was 934 ± 1.9 kg/m3, the mass density (373.15 K, 7500 kPa) was 935.9 ± 1.9 kg/m3 and the mass density (373.15 K, 10040 kPa) was 937.9 ± 1.9 kg/m3. It also gave a mass density (373.15 K, 15000 kPa) of 941.6 ± 1.9 kg/m3, a mass density (373.15 K, 20030 kPa) of 945.2 ± 1.9 kg/m3 and a mass density (373.15 K, 30010 kPa) of 952 ± 1.9 kg/m3. For the same compound, the mass density (373.15 K, 40020 kPa) was 958.3 ± 1.9 kg/m3, the mass density (373.15 K, 49990 kPa) was 964.3 ± 1.9 kg/m3 and the mass density (373.15 K, 68010 kPa) was 974.2 ± 2 kg/m3.
